Experimental data taken from patent publication US11840528B2 (Hoffmann-La Roche Inc., priority 2018, dated 2023).

How the values were obtained:
h-GABA-A α5β3γ2 [1] = biological target: T1, h-GABA-A α5β3γ2 (Homo sapiens, UniProt P18507+P31644); experiment: [3H]flumazenil competition binding assay, membranes of HEK293 cells expressing GABAA receptors; settings: displacement of [3H]-Flumazenil 0.5 nM, HEK293 cells expressing human receptors, mean of two determinations; Table 1
In short: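 Receptor source: human α5β3γ2 transiently transfected into HEK293 cells, membranes in pH 7.5 Krebs-tris. Filtration through GF/C, then scintillation counting.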

h-GABA-A α5β3γ2 [2] = biological target: T1, h-GABA-A α5β3γ2; experiment: Two-electrode voltage clamp electrophysiology in Xenopus laevis oocytes expressing GABAA receptors, modulation of GABA EC20 current; assay type: cell-based; parameters: host or cells: Xenopus laevis oocytes micro-injected with RNA transcripts of the subunits; settings: Table 1; for Efficacy (GABA) %: % modulation of GABA EC20 = 100*(Fold increase-1); for Fold increase h-GABA-A α5β3γ2 oocyte: test compound at approx. 30 fold its Ki, GABA at EC20
In short: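 Modulation is reported as % of the GABA EC20 current, calculated as 100*(Fold increase−1) from the peak ratio between a second GABA response carrying compound (applied at roughly 30-fold Ki) and a preceding control response. Oocytes expressing human α5β3γ2 were clamped at −80 mV at room temperature, 3–5 days after injection.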

Ki (h-GABA-A α5β3γ2 [1])	Efficacy (GABA) % (h-GABA-A α5β3γ2 [2])	Fold increase h-GABA-A α5β3γ2 oocyte (h-GABA-A α5β3γ2 [2])	SMILES
2.8 nM	124%	2.24	CCO[C@H]1CN(c2cnn(Cc3c(-c4ccc(Cl)nc4)noc3C)c(=O)c2)[C@H]1C [Example 291, 2-((3-(6-chloropyridin-3-yl)-5-methylisoxazol-4-yl)methyl)-5-((2S,3S)-3-ethoxy-2-methylazetidin-1-yl)pyridazin-3(2H)-one]
36.2 nM	193%	2.93	Cc1ccc(-c2noc(C3CC3)c2Cn2ncc(N3CC4(CCCCO4)C3)cc2=O)nn1 [Example 259, 2-[[5-cyclopropyl-3-(6-methylpyridazin-3-yl)isoxazol-4-yl]methyl]-5-(5-oxa-2-azaspiro[3.5]nonan-2-yl)pyridazin-3-one]
11.4 nM	104%	2.04	Cc1ccc(-c2noc(C)c2Cn2ncc(-c3ccnc(C(F)(F)F)c3)cc2=O)cn1 [Example 108, 2-((5-methyl-3-(6-methylpyridin-3-yl)isoxazol-4-yl)methyl)-5-(2-(trifluoromethyl)pyridin-4-yl)pyridazin-3(2H)-one]
34.3 nM	126%	2.26	Cc1onc(-c2ccc(Cl)nc2)c1Cn1ncc(N2CCC3(CC2)COC3)cc1=O [Example 258, 2-((3-(6-chloropyridin-3-yl)-5-methylisoxazol-4-yl)methyl)-5-(2-oxa-7-azaspiro[3.5]nonan-7-yl)pyridazin-3(2H)-one]
1.8 nM	108%	2.08	Cc1ccc(-c2noc(C)c2Cn2ncc(N(C)C3CC3)cc2=O)cn1 [Example 64, 5-(cyclopropyl(methyl)amino)-2-((5-methyl-3-(6-methylpyridin-3-yl)isoxazol-4-yl)methyl)pyridazin-3(2H)-one]
0.6 nM	88%	1.88	Cc1cc(-c2noc(C)c2Cn2ncc(N3C[C@@H](C)O[C@@H](C)C3)cc2=O)no1 [Example 62, 5-(cis-2,6-dimethylmorpholin-4-yl)-2-[[5-methyl-3-(5-methylisoxazol-3-yl)isoxazol-4-yl]methyl]pyridazin-3-one]
0.7 nM	94%	1.94	Cc1onc(-c2ccc(Cl)cn2)c1Cn1ncc(N2C[C@@H](C)O[C@@H](C)C2)cc1=O [Example 13, 2-((3-(5-Chloropyridin-2-yl)-5-methylisoxazol-4-yl)methyl)-5-(cis-2,6-dimethylmorpholino)pyridazin-3(2H)-one]
6.3 nM	129%	2.29	Cc1ccc(-c2noc(C)c2Cn2ncc(N3CC4(CCC(C(F)(F)F)CO4)C3)cc2=O)nn1 (single isomer, unassigned) [Example 321]
23.7 nM	138%	2.38	COC1CC2(C1)CN(c1cnn(Cc3c(-c4ccc(Cl)nc4)noc3C)c(=O)c1)C2 [Example 303]
30 nM	126%	2.26	Cc1ccc(-c2noc(C)c2Cn2ncc(N3CC4(CC(F)CCO4)C3)cc2=O)cn1 (single isomer, unassigned) [Example 273]
7.3 nM	172%	2.72	Cc1ccc(-c2noc(C)c2Cn2ncc(N3CC[C@H](C(C)(C)O)C3)cc2=O)cn1 [Example 120, 5-((3S)-3-(2-hydroxypropan-2-yl)pyrrolidin-1-yl)-2-((5-methyl-3-(6-methylpyridin-3-yl)-1,2-oxazol-4-yl)methyl)pyridazin-3-one]
34.6 nM	147%	2.47	Cc1ccc(-c2noc(C)c2Cn2ncc(N3CC(OCC4CC4)C3)cc2=O)cn1 [Example 111, 5-[3-(cyclopropylmethoxy)azetidin-1-yl]-2-[[5-methyl-3-(6-methyl-3-pyridyl)isoxazol-4-yl]methyl]pyridazin-3-one]
32.8 nM	108%	2.08	CCOC1CN(c2cnn(Cc3c(-c4cnc(C)c(F)c4)noc3C)c(=O)c2)C1 [Example 213, 5-(3-ethoxyazetidin-1-yl)-2-((3-(5-fluoro-6-methylpyridin-3-yl)-5-methylisoxazol-4-yl)methyl)pyridazin-3(2H)-one]
17.8 nM	121%	2.21	Cc1ccc(-c2noc(C)c2Cn2ncc(N3CC4(C[C@@H](OC(F)F)CO4)C3)cc2=O)cn1 [Example 203, 5-[(7R)-7-(difluoromethoxy)-5-oxa-2-azaspiro[3.4]octan-2-yl]-2-[[5-methyl-3-(6-methyl-3-pyridyl)isoxazol-4-yl]methyl]pyridazin-3-one]
2.9 nM	136%	2.36	Cc1ccc(-c2noc(C)c2Cn2ncc(N3CC(Oc4ccnc(Cl)c4)C3)cc2=O)nn1 [Example 236, 5-[3-[(2-chloro-4-pyridyl)oxy]azetidin-1-yl]-2-[[5-methyl-3-(6-methylpyridazin-3-yl)isoxazol-4-yl]methyl]pyridazin-3-one]
6.2 nM	136%	2.36	Cc1ccc(-c2noc(C)c2Cn2ncc(-c3ccnc(C)c3)cc2=O)cn1 [Example 106, 2-((5-methyl-3-(6-methylpyridin-3-yl)isoxazol-4-yl)methyl)-5-(2-methylpyridin-4-yl)pyridazin-3(2H)-one]
10.5 nM	107%	2.07	Cc1ccc(-c2noc(C)c2Cn2ncc(-c3ccccc3)cc2=O)cn1 [Example 67, 2-((5-methyl-3-(6-methylpyridin-3-yl)isoxazol-4-yl)methyl)-5-phenylpyridazin-3(2H)-one]
11.9 nM	71%	1.71	Cc1ccc(-c2noc(C)c2Cn2ncc(-c3ccc(F)cc3)cc2=O)cn1 [Example 68, 5-(4-fluorophenyl)-2-[[5-methyl-3-(6-methylpyridin-3-yl)-1,2-oxazol-4-yl]methyl]pyridazin-3-one]
4.2 nM	126%	2.26	Cc1ccc(-c2noc(C)c2Cn2ncc(N3CC(OCC4CC4)C3)cc2=O)nn1 [Example 185, 5-[3-(cyclopropylmethoxy)azetidin-1-yl]-2-[[5-methyl-3-(6-methylpyridazin-3-yl)isoxazol-4-yl]methyl]pyridazin-3-one]

SMILES	Ki (h-GABA-A α5β3γ2 [1])	Efficacy (GABA) % (h-GABA-A α5β3γ2 [2])	Fold increase h-GABA-A α5β3γ2 oocyte (h-GABA-A α5β3γ2 [2])
Cc1ccc(-c2noc(C)c2Cn2ncc(N3CC4CC(C3)O4)cc2=O)cn1 [Example 100, 2-[[5-methyl-3-(6-methyl-3-pyridyl)isoxazol-4-yl]methyl]-5-(6-oxa-3-azabicyclo[3.1.1]heptan-3-yl)pyridazin-3-one]	12.2 nM	105%	2.05
Cc1onc(-c2ccc(Cl)nc2)c1Cn1ncc(N2CC(OC3CCC3)C2)cc1=O [Example 253, 2-((3-(6-chloropyridin-3-yl)-5-methylisoxazol-4-yl)methyl)-5-(3-cyclobutoxyazetidin-1-yl)pyridazin-3(2H)-one]	31 nM	156%	2.56
